Reference: the supplement of paper PMC9663587

Columns and labels:
Everolimus = compound: CO[C@H]1C[C@@H]2CC[C@@H](C)[C@@](O)(O2)C(=O)C(=O)N2CCCC[C@H]2C(=O)O[C@H]([C@H](C)C[C@@H]2CC[C@@H](OCCO)[C@H](OC)C2)CC(=O)[C@H](C)/C=C(\C)[C@@H](O)[C@@H](OC)C(=O)[C@H](C)C[C@H](C)/C=C/C=C/C=C/1C [Everolimus]
YKL-5-124 = compound: C=CC(=O)Nc1ccc(C(=O)Nc2[nH]nc3c2CN(C(=O)N[C@H](CN(C)C)c2ccccc2)C3(C)C)cc1 [YKL-5-124]
BSJ-03-123 = compound: CC(=O)c1c(C)c2cnc(Nc3ccc(N4CCN(CCOCCOCCOCCNC(=O)COc5cccc6c5C(=O)N(C5CCC(=O)NC5=O)C6=O)CC4)cn3)nc2n(C2CCCC2)c1=O [BSJ-03-123]; experiment: GR value, 72 h; higher = faster growth (1 = untreated, <0 = killing);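 further: breast cancer and non-malignant breast epithelial lines, nine half-log doses, viable cells counted by Hoechst and LIVE/DEAD dye imaging versus time-zero plates and DMSO controls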
Neratinib/HKI272 = compound: CCOc1cc2ncc(C#N)c(Nc3ccc(OCc4ccccn4)c(Cl)c3)c2cc1NC(=O)/C=C/CN(C)C [Neratinib/HKI272]; experiment: as above
Topotecan = compound: CC[C@@]1(O)C(=O)OCc2c1cc1n(c2=O)Cc2cc3c(CN(C)C)c(O)ccc3nc2-1 [Topotecan]
Etoposide = compound: COc1cc([C@@H]2c3cc4c(cc3[C@@H](O[C@@H]3O[C@@H]5CO[C@@H](C)O[C@H]5[C@H](O)[C@H]3O)[C@H]3COC(=O)[C@H]23)OCO4)cc(OC)c1O [Etoposide]
Cisplatin = compound: N.N.Cl[Pt]Cl [Cisplatin]
Bleomycin = compound: CC1=C(N=C(N=C1N)[C@H](CC(=O)N)NC[C@@H](C(=O)N)N)C(=O)N[C@@H]([C@H](C2=CN=CN2)OC3C(C(C(C(O3)CO)O)O)OC4C(C(C(C(O4)CO)O)OC(=O)N)O)C(=O)N[C@H](C)[C@H]([C@H](C)C(=O)N[C@@H]([C@@H](C)O)C(=O)NCCC5=NC(=CS5)C6=NC(=CS6)C(=O)NCCC[S+](C)C)O [Bleomycin]; conditions: main component drawn
[1] = compound: COc1cccc(OCCCN)c1-c1cc(Nc2cnc(C#N)cn2)n[nH]1
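Wherever GR50, 72 h is given: breast cancer and non-malignant breast epithelial cell lines, Deep Dye Drop or Dye Drop imaging, nine half-log doses, GR normalized to time-zero plates and DMSO-only controls.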

Cell Line	GR50, 72 h (Everolimus) [µM]	GR50, 72 h (YKL-5-124) [µM]	GR value (BSJ-03-123; 0.001 µM) [GR]	GR value (BSJ-03-123; 0.003162 µM) [GR]	GR value (BSJ-03-123; 0.01 µM) [GR]	GR value (BSJ-03-123; 0.03162 µM) [GR]	GR value (BSJ-03-123; 0.1 µM) [GR]	GR value (BSJ-03-123; 0.3162 µM) [GR]	GR value (BSJ-03-123; 1 µM) [GR]	GR value (BSJ-03-123; 3.162 µM) [GR]	GR value (BSJ-03-123; 10 µM) [GR]	GR value (Neratinib/HKI272; 0.0003162 µM) [GR]	GR value (Neratinib/HKI272; 0.001 µM) [GR]	GR value (Neratinib/HKI272; 0.003162 µM) [GR]	GR value (Neratinib/HKI272; 0.01 µM) [GR]	GR value (Neratinib/HKI272; 0.03162 µM) [GR]	GR value (Neratinib/HKI272; 0.1 µM) [GR]	GR value (Neratinib/HKI272; 0.3162 µM) [GR]	GR value (Neratinib/HKI272; 1 µM) [GR]	GR value (Neratinib/HKI272; 3.162 µM) [GR]	GR50, 72 h (Topotecan) [µM]	GR50, 72 h (Etoposide) [µM]	GR50, 72 h (Cisplatin) [µM]	GR50, 72 h (Bleomycin) [µM]	GR50, 72 h [1] [µM]
184A1	> 10	< 0.001	0.716	0.636	0.521	0.296	0.243	0.145	0.114	0.101	-0.139	0.998	1	1.02	0.853	0.468	0.287	0.219	0.198	0.166					
BT474		< 0.001	1.01	0.599	0.685	0.727	0.515	0.523	0.364	0.386	0.0116	0.989	0.784	-0.125	-0.734	-0.825	-0.86	-0.874	-0.895	-0.922					
EVSAT		< 0.001	0.994	0.961	0.922	0.885	0.851	0.819	0.724	0.67	0.0632	0.99	1.02	1.01	0.991	0.978	0.909	0.895	0.822	0.676					
HCC70	0.245	< 0.001	1.1	0.898	1	0.996	0.911	0.848	0.865	0.754	-0.525	1.04	0.943	1.02	0.986	0.79	0.621	0.377	0.128	0.0733	0.00946	0.365	1.32	0.398	
HCC202			0.979	0.927	0.777	0.873	0.889	0.829	0.666	0.768	0.0981	1.05	0.953	0.901	0.709	0.491	0.325	0.214	0.194	0.0934					0.00549
HCC1187	> 10		0.987	0.865	0.969	0.935	0.956	0.882	0.743	0.621	-0.43	0.994	0.99	0.792	1.07	0.979	0.78	0.869	0.653	0.484					
HCC1428	0.031											1.08	1.03	1.05	0.992	1.1	0.964	0.922	0.656	-0.0337	0.0106	0.214	0.901	4.26	
HCC1500												1.03	1.13	1.01	1.02	0.915	0.889	0.793	0.416	-0.245	0.00546	1.43	3.45	2.28	
HCC1569	> 10		1.01	0.944	1.04	0.922	1.08	0.841	0.5	0.693	-0.102	0.95	0.948	0.863	0.708	0.612	0.537	0.363	0.225	0.124					0.00228
HCC1806	> 10	< 0.001	1	0.98	0.958	0.963	0.902	0.831	0.648	0.566	-0.0555	1.08	1.06	1.04	0.99	0.881	0.811	0.675	0.546	-0.0945	0.00527	0.0964	0.833	8.98	
HCC1954		< 0.001	0.886	0.859	0.812	0.745	0.689	0.746	0.558	0.473	-0.0177	1.04	1.05	0.938	0.859	0.533	0.389	0.27	0.119	-0.0858	0.0119	0.171	1.25	0.0438	
HS578T	0.00554	< 0.001	0.971	0.905	0.883	0.844	0.79	0.74	0.626	0.521	-0.29	1.06	1	1.05	0.98	1	0.888	0.613	0.427	-0.155	0.00498	0.413	1.54	0.252	
MCF7	0.00269	< 0.001	0.928	0.899	0.858	0.784	0.789	0.727	0.604	0.544	-0.327	1.04	1.03	0.998	0.951	0.947	0.931	0.774	0.657	0.0611	0.00604	0.135	9.32	0.0772	
